Patent US20250176542A1, “Antibacterial Composition” (LG Chem, Ltd., priority 2022, published 2025)

Legend:
E. coli bacteria = assay: Bacterial proliferation inhibition rate measurement (Method 1); assay type: cell-based; details: 0.04 g in 20 mL nutrient broth inoculated with 3,000±300 CFU/mL, 37° C., 24 hours, absorbance at 600 nm
Description: After 0.04 g of the antibacterial composition is added to 20 mL of a nutrient broth culture solution inoculated with 3,000±300CFU/mL of bacterial strain, from the culture solution of an experimental group in which the resulting mixture is incubated at 37° C. in a shaking incubator for 24 hours, the absorbance at a wavelength of 600 nm is measured using a UV/Vis spectrophotometer, • the antibacterial composition is not added to 20 mL of a nutrient broth culture solution inoculated with 3,000±300CFU/mL of bacterial strain, from the culture solution of a control in which the nutrient broth culture solution is incubated at 37° C. for 24 hours, the absorbance at a wavelength of 600 nm is measured using a UV/Vis spectrophotometer, and • from the absorbance of the experimental group and the absorbance of the control group, the bacterial proliferation inhibition rate (%) of the test bacteria is calculated using the following Equation 1.
In the present experiment, the bacterial proliferation inhibition rate was measured according to the following Method 1. In this case, E. coli bacteria were used.

[1] = Primary thermal decomposition measurement (thermogravimetric analyzer); assay type: physicochemical; details: N2 atmospheric environment, extrapolated onset of first mass reduction section
From the text: The primary thermal decomposition temperature may be defined as an extrapolated intersection point between a starting mass reference line and the tangent line of the maximum slope point in the first mass reduction section of a mass loss curve measured by a thermogravimetric analyzer in an N2 atmospheric environment.
A thermogravimetric analyzer (TGA2 manufactured by Mettler Toledo) was used in order to perform an experiment on the primary thermal decomposition temperature of the antibacterial compositions of Examples 1 to 13 and Comparative Example 1.
In the present experiment, the primary thermal decomposition temperature may be defined as an extrapolated intersection point between a starting mass reference line and the tangent line of the maximum slope point in the first mass reduction section of a mass loss curve measured by a thermogravimetric analyzer in an N2 atmospheric environment. In the present disclosure, it was determined that when the primary thermal decomposition temperature of the antibacterial composition has a value higher than the primary thermal decomposition temperature of the material before anion substitution, the heat resistance has increased.

Row | Compound | Bacterial proliferation inhibition rate (E. coli bacteria) [%] | Primary thermal decomposition temperature [1] [°C]
1 | C=Cc1ccc(C[N+](C)(C)CCCCCCCCCCCC)cc1.[Cl-] [Comparative Example 1] | 96.3 | –
2 | C=Cc1ccc(C[N+](C)(C)CCCCCCCCCCCC)cc1.O=S(=O)([O-])C(F)(F)F [Example 1] | – | 369
